{"source": "patent US5545617A", "about": "“Therapeutic regulation of abnormal conjunctival goblet cell mucous secretion” (The Schepens Eye Research Institute, Inc., priority 1993, dated 1996)", "key": {"[1]": {"tested_on": "conjunctival goblet cell mucous secretion", "experiment": "in vivo rat model: topical agents, density of mucin-containing goblet cells (alcian blue/PAS);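 for all read-outs here: rat eyes dosed topically with 20 µl drops every 20 min over 1 hr, non-secreted goblet cells counted in three 0.16 mm^2 conjunctival areas, lower density means more mucous secretion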", "conditions": "for goblet cell mucous secretion (in words): summary of Example I; for (Stimulus) Optimal Effective Conc. (M): Table 1; for (Stimulus) Max % Increase in Secretion: Table 1, at optimal effective conc.; for conjunctival goblet cell mucous secretion (in words): topical application, summary of Example II; for concentration giving the maximum effect on goblet cell density: topical", "protocol": "Thus, the in vivo rat model can be used to study conjunctival goblet cell mucous secretion. With this model, the ocular surface of anesthetized rats is treated topically or subconjunctivally. After treatment, the animals are euthanized, the ocular surface is fixed, conjunctival tissue is removed and mucus in the secretory granules of goblet cells stained with alcian blue and periodic acid-Schiff's (PAS) reagents to indicate mucin-containing goblet cells. The number of mucin-containing goblet cells is then determined. A decrease in the number of mucin-containing goblet cells indicates an increase in goblet cell secretion.\nTo determine the effect of topically applied solutions, experimental solutions (20 μl drops) were placed on each eye from the temporal region every 20 min for 1 hr. The solutions were carefully removed with a cotton-tipped applicator from the nasal region of the eyes before placement of the next drop or before euthanization. […] Because conjunctival goblet cell density is not uniform throughout the conjunctiva, care was taken to use a specific area for sampling. […] Conjunctival buttons were then dissected and tissue placed epithelial side up on gelatin-coated, glass microscope slides. […] Mucin contained in the secretory granules of the goblet cells was stained with alcian blue and periodic acid-Schiff (PAS) stain (79). The number of mucin-containing goblet cells was counted in a masked fashion using light microscopy (standard Zeiss microscope) at 160× magnification. The density of mucin-containing goblet cells was determined by averaging counts of goblet cells in three 0.16 mm^2 areas in each button. A decrease in mucin containing goblet cell number per unit area (density) indicated an increase in mucous secretion.\nThe mucin-containing goblet cells stained purple and fuchsia with alcian blue and PAS, respectively. By focusing through the tissue, cells with moderate to intense staining and sharp, defined cell borders were considered non-secreted and were counted. Cells with very light stain, absence of color, indistinguishable color from background staining and fuzzy borders were considered cells that had secreted mucus and were not counted. Following these criteria, the non-secreted mucin-containing goblet cells in the three 0.16 mm^2 areas were counted, averaged and expressed as mucin-containing goblet cell density. Therefore, a decrease in mucin-containing goblet cell density indicated mucous secretion.\nTo determine the effect of topically applied compounds, an experimental buffer containing the test compound (20 μl drops) was placed on one eye from the temporal region every 20 min for 1 hr unless otherwise indicated. […] The solutions were removed from the nasal region of the eye with a cotton-tipped applicator. After the 1 hr protocol, animals were euthanized with sodium pentobarbital."}, "[2]": {"tested_on": "conjunctival goblet cell mucous secretion", "conditions": "100 μg topical, rabbits, cited from earlier work"}, "[3]": {"tested_on": "conjunctival goblet cell density", "conditions": "long term exposure of rabbit ocular surface; cited from earlier work"}, "[4]": {"tested_on": "conjunctival goblet cell mucous secretion", "conditions": "cited from earlier work"}, "[5]": {"tested_on": "conjunctival goblet cell mucous secretion", "experiment": "local anesthetics on sensory stimulation (corneal debridement) of goblet cell mucous secretion", "assay_type": "in vivo, rat", "description": "Rats were anesthetized with sodium pentobarbital (65 mg/kg).\nFifteen min after application of local anesthetic, the central cornea of one eye was wounded by debridement (2-3 mm diameter area), the other was sham-debrided and 5 min later the animal was euthanized with intraperitoneal sodium pentobarbital ([…])."}, "[6]": {"tested_on": "conjunctival goblet cells", "experiment": "light microscopy of H and E stained conjunctival sections after topical lidocaine", "assay_type": "in vivo, rat", "conditions": "1% topical", "description": "The globe of the eye was excised. The posterior half of the globe was removed, followed by removal of the lens and iris. The remaining tissue (the ocular surface) including the cornea, the limbus, and the bulbar conjunctiva was frozen in O. C. T. Compound (Miles Inc., Elkart, Ind.).\nTissue sections (20 μm) were prepared from the ocular surface and stained with hematoxylin and eosin (H and E). Sections were examined using an Olympus Microscope (BH-2; Micro-Tech Optical, Inc., Hudson, Mass.)."}, "[7]": {"conditions": "10^-4 M topical, 1 hr, inferior conjunctiva"}, "[8]": {"conditions": "10^-8 M topical, 1 hr, inferior conjunctiva"}, "[9]": {"conditions": "10^-8 M topical, 1 hr, Example II"}}, "note": "Where “and” joins values, the source holds several entries; their conditions need not be identical. Equal values may be shown once. Where a name gives a salt, the structure may show the parent alone. Read-outs that look alike come from different tables or passages of the source.", "data": [{"compound": "CNC[C@H](O)c1ccc(O)c(O)c1", "note": "[epinephrine, (-)-epinephrine]", "values": [{"measurement": "electron microscopy of goblet cells, inferior bulbar conjunctiva", "setting": "[1]; 1 μM (FIG. 5D)", "value": "some of the goblet cells secreted mucus onto the ocular surface in an all or none fashion"}, {"measurement": "goblet cell mucous secretion (in words)", "setting": "[1]; 100 μM topical", "value": "stimulated mucous secretion"}, {"measurement": "decrease in mucin-containing goblet cell density from contralateral control", "setting": "[1]; [7]", "value": 46, "unit": "%"}, {"measurement": "mucin-containing goblet cell density, inferior conjunctiva", "setting": "[1]; 10^-4 M topical, 1 hr, Example I, P<0.04 vs buffer", "value": "159±35", "unit": "cells"}, {"measurement": "mucin-containing goblet cell density, inferior conjunctiva", "setting": "[1]; 10^-6 M topical, 1 hr, Example I, unchanged vs buffer", "value": "200±33", "unit": "cells"}, {"measurement": "mucin-containing goblet cell density, inferior conjunctiva", "setting": "[1]; 10^-8 M topical, 1 hr, Example I, unchanged vs buffer", "value": "180±55", "unit": "cells"}, {"measurement": "(Stimulus) Optimal Effective Conc. (M)", "setting": "[1]", "value": "10^-2 M"}, {"measurement": "(Stimulus) Max % Increase in Secretion", "setting": "[1]", "value": 52, "unit": "%"}, {"measurement": "conjunctival goblet cell mucous secretion (in words)", "setting": "[1]", "value": "stimulate conjunctival goblet cell mucous secretion"}, {"measurement": "concentration giving the maximum effect on goblet cell density", "setting": "[1]; 1 hr, Example II", "value": "10^-4 M"}]}, {"compound": "Substance P", "values": [{"measurement": "decrease in mucin-containing goblet cell density from contralateral control eye", "setting": "[1]; 10^-6 M topical, 1 hr", "value": 58, "unit": "%"}, {"measurement": "mucin-containing goblet cell density", "setting": "[1]; 10^-6 M topical, 1 hr, Example II", "value": "77±18", "unit": "cells"}, {"measurement": "effect on mucin-containing goblet cell density", "setting": "[1]; 10^-10 or 10^-8 M topical", "value": "not at 10^-10 or 10^-8 M"}, {"measurement": "(Stimulus) Optimal Effective Conc. (M)", "setting": "[1]", "value": "10^-6 M"}, {"measurement": "(Stimulus) Max % Increase in Secretion", "setting": "[1]", "value": 42, "unit": "%"}, {"measurement": "conjunctival goblet cell mucous secretion (in words)", "setting": "[1]", "value": "stimulate conjunctival goblet cell mucous secretion"}]}, {"compound": "CCCC[C@H](C)C(O)C#CC1CCC(=O)C1C/C=C\\CCCC(=O)OC", "note": "(stereo partly drawn) [FCE20700, 11-deoxy-13,14-didehydro-16(S)-methylester methyl PGE2]", "values": [{"measurement": "goblet cells with mucous secretion", "setting": "[2]; 0.5 hr", "value": 86.9, "unit": "%"}, {"measurement": "goblet cells with mucous secretion", "setting": "[2]; 2.5 hr", "value": 90.3, "unit": "%"}]}, {"compound": "NCCc1c[nH]c2ccc(O)cc12", "note": "[serotonin, 5-hydroxytryptamine]", "values": [{"measurement": "decrease in mucin-containing goblet cell density from contralateral control", "setting": "[1]; [8]", "value": 54, "unit": "%"}, {"measurement": "mucin-containing goblet cell density, inferior conjunctiva", "setting": "[1]; [9]", "value": "148±27", "unit": "cells"}, {"measurement": "(Stimulus) Optimal Effective Conc. (M)", "setting": "[1]", "value": "10^-8 M"}, {"measurement": "(Stimulus) Max % Increase in Secretion", "setting": "[1]", "value": 54, "unit": "%"}, {"measurement": "conjunctival goblet cell mucous secretion (in words)", "setting": "[1]", "value": "stimulate conjunctival goblet cell mucous secretion"}, {"measurement": "concentration giving the maximum effect on goblet cell density", "setting": "[1]; 1 hr, Example II", "value": "10^-8 M"}]}, {"compound": "CNC[C@H](O)c1cccc(O)c1", "note": "[phenylephrine, L-phenylephrine hydrochloride]", "values": [{"measurement": "conjunctival goblet cell density", "setting": "[3]", "value": "does not significantly affect conjunctival goblet cell density"}, {"measurement": "decrease in mucin-containing goblet cell density from contralateral control", "setting": "[1]; [7]", "value": 40, "unit": "%"}, {"measurement": "(Stimulus) Optimal Effective Conc. (M)", "setting": "[1]", "value": "10^-4 M"}, {"measurement": "(Stimulus) Max % Increase in Secretion", "setting": "[1]", "value": 40, "unit": "%"}, {"measurement": "conjunctival goblet cell mucous secretion (in words)", "setting": "[1]", "value": "stimulate conjunctival goblet cell mucous secretion"}, {"measurement": "concentration giving the maximum effect on goblet cell density", "setting": "[1]; 1 hr, Example II", "value": "10^-4 M"}]}, {"compound": "Nc1nc2c(nc(Br)n2[C@@H]2O[C@@H]3COP(=O)(O)O[C@H]3[C@H]2O)c(=O)[nH]1", "note": "[8-Br-cGMP]", "values": [{"measurement": "mucin discharge", "setting": "[4]", "value": "2-3 fold"}]}, {"compound": "NCCc1ccc(O)c(O)c1", "note": "[dopamine, 3-hydroxytyramine]", "values": [{"measurement": "decrease in mucin-containing goblet cell density from contralateral control", "setting": "[1]; [8]", "value": 64, "unit": "%"}, {"measurement": "(Stimulus) Optimal Effective Conc. (M)", "setting": "[1]", "value": "10^-8 M"}, {"measurement": "(Stimulus) Max % Increase in Secretion", "setting": "[1]", "value": 64, "unit": "%"}, {"measurement": "conjunctival goblet cell mucous secretion (in words)", "setting": "[1]", "value": "stimulate conjunctival goblet cell mucous secretion"}, {"measurement": "concentration giving the maximum effect on goblet cell density", "setting": "[1]; 1 hr, Example II", "value": "10^-8 M"}]}, {"compound": "CCCOc1ccc(C(=O)OCCN(CC)CC)cc1N", "note": "[proparacaine, Proparacaine hydrochloride]", "values": [{"measurement": "inhibition of sensory stimulation of mucous secretion", "setting": "[5]; 0.5% topical, 15 min before corneal debridement", "value": "unable to inhibit sensory stimulation of mucous secretion"}]}, {"compound": "CCN(CC)CC(=O)Nc1c(C)cccc1C", "note": "[lidocaine, lidocaine hydrochloride]", "values": [{"measurement": "effect on sensory stimulation of mucous secretion", "setting": "[5]; 1% sub-conjunctival injection alone", "value": "inhibited sensory stimulation of mucous secretion"}, {"measurement": "mucin-containing goblet cells in treated, wounded eyes", "setting": "[5]; 1% sub-conjunctival injection prior to the wound", "value": "100±28", "unit": "cells"}, {"measurement": "mucin-containing goblet cells in treated, contralateral sham-wounded eyes", "setting": "[5]; 1% sub-conjunctival injection, sham-wounded", "value": "98±24", "unit": "cells"}, {"measurement": "effect on sensory stimulation of mucous secretion", "setting": "[5]; 1% topical alone", "value": "inhibited sensory stimulation of mucous secretion"}, {"measurement": "effect on sensory stimulation of mucous secretion", "setting": "[5]; 1% topical and sub-conjunctival injection", "value": "inhibited the sensory stimulation of goblet cell mucous secretion"}, {"measurement": "mucin-containing goblet cells in treated, contralateral sham-wounded eyes", "setting": "[5]; 1% topical and sub-conjunctival injection, sham-wounded", "value": "110±25", "unit": "cells"}, {"measurement": "mucin-containing goblet cells in treated, wounded eyes", "setting": "[5]; 1% topical and sub-conjunctival injection, then wounded", "value": "132±21", "unit": "cells"}, {"measurement": "mucin-containing goblet cells in treated, wounded eyes", "setting": "[5]; 1% topical prior to the wound", "value": "84±7", "unit": "cells"}, {"measurement": "mucin-containing goblet cells in treated, sham-wounded eyes", "setting": "[5]; 1% topical, sham-wounded", "value": "78±5", "unit": "cells"}, {"measurement": "goblet cells detected in H- and E-stained sections", "setting": "[6]; 5 min (FIG. 6B)", "value": "some goblet cells"}, {"measurement": "goblet cells detected in H- and E-stained sections", "setting": "[6]; 10 min (FIG. 6C)", "value": "numerous goblet cells"}]}, {"compound": "Vasoactive Intestinal Peptide [VIP]", "values": [{"measurement": "decrease in mucin-containing goblet cell density from contralateral control", "setting": "[1]; [8]", "value": 39, "unit": "%"}, {"measurement": "mucin-containing goblet cell density, inferior conjunctiva", "setting": "[1]; [9]", "value": "150±23", "unit": "cells"}, {"measurement": "(Stimulus) Optimal Effective Conc. (M)", "setting": "[1]", "value": "10^-8 M"}, {"measurement": "(Stimulus) Max % Increase in Secretion", "setting": "[1]", "value": 39, "unit": "%"}, {"measurement": "conjunctival goblet cell mucous secretion (in words)", "setting": "[1]", "value": "stimulate conjunctival goblet cell mucous secretion"}, {"measurement": "concentration giving the maximum effect on goblet cell density", "setting": "[1]; 1 hr, Example II", "value": "10^-8 M"}]}, {"compound": "Nc1ncnc2c1nc(Br)n2[C@@H]1O[C@@H]2COP(=O)(O)O[C@H]2[C@H]1O", "note": "[8-Br-cAMP]", "values": [{"measurement": "mucin discharge", "setting": "[4]", "value": "unaffected"}]}, {"compound": "C[N+](C)(C)CCOC(N)=O.[Cl-]", "note": "[carbachol, carbamyl choline chloride]", "values": [{"measurement": "effect on mucin-containing goblet cell density", "setting": "[1]; 10^-5 -10^-4 M topical", "value": "not at 10^-5 -10^-4 M"}, {"measurement": "decrease in mucin-containing goblet cell density from contralateral control eye", "setting": "[1]; 10^-6 M topical, 1 hr", "value": 40, "unit": "%"}, {"measurement": "effect on mucin-containing goblet cell density", "setting": "[1]; 10^-7 M topical", "value": "decreased mucin-containing goblet cell density"}, {"measurement": "(Stimulus) Optimal Effective Conc. (M)", "setting": "[1]", "value": "10^-6 M"}, {"measurement": "(Stimulus) Max % Increase in Secretion", "setting": "[1]", "value": 41, "unit": "%"}, {"measurement": "conjunctival goblet cell mucous secretion (in words)", "setting": "[1]", "value": "stimulate conjunctival goblet cell mucous secretion"}, {"measurement": "concentration giving the maximum effect on goblet cell density", "setting": "[1]; 1 hr, Example II", "value": "10^-6 M"}]}, {"compound": "CCCCC(C)(C)[C@H](O)/C=C/[C@H]1[C@H](O)CC(=O)[C@@H]1C/C=C\\CCCC(=O)O", "note": "[dmPGE2, 16,16-dimethyl-prostaglandin E2]", "values": [{"measurement": "mucin-containing goblet cell density, inferior bulbar conjunctiva", "setting": "[1]; 1 μM topical, 1 hr, vs control", "value": "did not differ significantly from control values"}, {"measurement": "mucin-containing goblet cell density, inferior bulbar conjunctiva", "setting": "[1]; 10 μM topical, 1 hr, vs control", "value": "did not differ significantly from control values"}, {"measurement": "decrease in mucin-containing goblet cell density from buffer-treated eyes", "setting": "[1]; 100 μM topical, 1 hr, inferior conjunctiva", "value": "30% and 39%"}, {"measurement": "mucin-containing goblet cell density, inferior bulbar conjunctiva", "setting": "[1]; 100 μM topical, 1 hr, mean±SE", "value": "36±12", "unit": "goblet cells/0.16 mm^2"}, {"measurement": "goblet cell mucous secretion (in words)", "setting": "[1]; 100 μM topical", "value": "increased goblet cell mucous secretion from inferior but not superior conjunctiva"}, {"measurement": "mucin-containing goblet cell density, superior bulbar conjunctiva", "setting": "[1]; 100 μM, 10 μM, 1 μM topical, 1 hr, vs contralateral control or buffer-treated eyes", "value": "Neither 100 μM, 10 μM, nor 1 μM dmPGE2 significantly altered the density"}, {"measurement": "electron microscopy of goblet cells, inferior bulbar conjunctiva", "setting": "[1]; 600 μM (FIG. 5B)", "value": "the goblet cells secreted mucous onto the ocular surface"}]}]}
